The term inhibition denotes the change of the read-out against control, counted positive when it falls.

inhibition, IC50 and ED50 data for three compounds are collected here from patent publication EP0181128A2, “N6-bicycloadenosines” (WARNER-LAMBERT COMPANY, priority 1984, dated 1986).

The subject of experiment [1] is Carrageenan pleurisy. The experiment is described as follows: Carrageenan pleurisy assay (immunoinflammatory test). It is filed as in vivo, rats. The following applies: Rattus norvegicus; for ED50: 4 h, four hours after carrageenan, compound given one hour prior to carrageenan. As for the experimental part:
Assessment of immunoinflammatory or antiinflammatory activity is provided by the carrageenan pleurisy assay. Carrageenan pleurisy is induced as previously described by Carter, G. W., et al., in J. Pharm. Pharmacol 34:66-67, 1982. Carrageenan (310 ug/rat) is injected intrapleurally in a 0.25 ml volume of pyrogen-free saline. Four hours later, the rats are sacrificed and 2 ml of a phenol red solution (325 mg phenol red in 1 liter of 0.05 M phosphate buffered saline) are added to each pleural cavity. The contents of the cavities are mixed and transferred to glass test tubes. A 50 ul aliquot is removed from each tube and exudate cells are counted after red blood cells lysis (with Zapoglobin; Coulter Electronics, Hialeah FL) using a Coulter model ZBI counter. The remaining exudate-phenol red mixture is centrifuged at 750 xg for 15 minutes. One hundred µl of the supernatent fluid is diluted with 3.9 ml of phosphate buffer (0.072 M of tribasic sodium phosphate, Na3PO4·12H2O, in water) and the absorbance is measured at 560 nm.
Exudate volume is calculated as follows: [formula] where V1 = unknown volume of exudate, V2 K volume of dye added to cavity (2 ml), A1 = absorbance of exudate (assumed to be zero), A2 = absorbance of the phenol red solution, A3 = absorbance of exudate and phenol red solution.
Inhibition of exudate or formation is calculated by the following equations: [formula] [formula] ID50 values are calculated by Probit analysis.
The compound of Example 1 was administered one hour prior to carrageenan injection.

In experiment [2] the target is T1, adenosine A1 receptor (Rattus norvegicus, UniProt P25099).
T1 sequence (P25099 1-326): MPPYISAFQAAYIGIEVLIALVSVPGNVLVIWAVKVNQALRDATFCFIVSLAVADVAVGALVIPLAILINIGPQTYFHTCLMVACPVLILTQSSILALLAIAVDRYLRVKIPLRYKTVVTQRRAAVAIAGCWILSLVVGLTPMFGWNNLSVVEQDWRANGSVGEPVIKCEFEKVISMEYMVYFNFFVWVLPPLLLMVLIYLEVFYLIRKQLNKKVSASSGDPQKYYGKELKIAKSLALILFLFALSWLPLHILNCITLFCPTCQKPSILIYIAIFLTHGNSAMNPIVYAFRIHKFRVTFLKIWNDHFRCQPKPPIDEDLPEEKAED
The experiment can be described thus: Adenosine Receptor Binding - A1 Receptor Affinity (RBA1), [3H]-CHA displacement in brain membranes. Also on record: species or system rats. As to conditions: 1.0 nM [3H]-CHA, rat whole brain membranes, one hour at 25°C; read-out: RBA-1. Here is the method:
Adenosine Receptor Binding - A1 Receptor Affinity (RBA1)
The supernatant was discarded, and the pellet was resuspended and centrifuged as before.
Incubation volume was 2 ml. Unbound [^3H]-CHA was separated by rapid filtration under reduced pressure through Whatman glass fiber (GF/B) filters.
Nonspecific binding was defined as the binding which occurred in the presence of 1 mM theophylline. […] Since the amount of radioligand bound was a small fraction of the total amount added, free radioligand was defined as the concentration (nM) of radioligand added to the incubation mixture.

Experiment [3] relates to male Swiss-Webster mice. The experiment can be described thus: Antiwrithing (AW) test (analgesic test), acetic acid-induced writhing. It is filed as in vivo. The following applies: Mus musculus, sc; subcutaneous, 20 minutes before acetic acid (0.6%, 10 ml/kg) i.p.; dose suppressing writhing by 50%. Here is the method: The antiwrithing (AW) test provides preliminary assessment of compounds with potential analgesic activity. The test is performed in male Swiss-Webster mice. Compounds are administered subcutaneously in aqueous 0.2% methylcellulose or other appropriate vehicles in volumes of 10 ml/kg. Dosages represent active moiety.
Acetic acid (0.6%, 10 ml/kg) is injected intraperitoneally 20 minutes after administration of the adenosine agonist. Writhing movements are counted for five minutes starting seven minutes after the acetic acid injection. Writhing is defined as abdominal constriction and stretching of the body and hind legs with concave arching of the back. Data are.expressed as ED50 values, where the ED50 is the dose necessary to suppress writhing by 50% relative to vehicle controls. ED50 values are calculated by nonlinear regression analysis.
In general terms: An intraperitoneal irritant provokes the stretching counted in writhing tests.

The target of experiment [4] is adenosine A2 receptor (Rattus norvegicus, UniProt P30543). The experiment can be described thus: Adenosine Receptor Binding - A2 Receptor Affinity (RBA2), [3H]NECA displacement in striatal membranes. Also on record: species or system rats. As to conditions: 4 nM [3H]NECA, 50 nM N6-cyclopentyladenosine, 60 minutes at 25°C, read-out: RBA-2. As for the experimental part: Adenosine Receptor Binding - A2 Receptor Affinity (RBA2)
Chain of adenosine A2 receptor (P30543 whole entry): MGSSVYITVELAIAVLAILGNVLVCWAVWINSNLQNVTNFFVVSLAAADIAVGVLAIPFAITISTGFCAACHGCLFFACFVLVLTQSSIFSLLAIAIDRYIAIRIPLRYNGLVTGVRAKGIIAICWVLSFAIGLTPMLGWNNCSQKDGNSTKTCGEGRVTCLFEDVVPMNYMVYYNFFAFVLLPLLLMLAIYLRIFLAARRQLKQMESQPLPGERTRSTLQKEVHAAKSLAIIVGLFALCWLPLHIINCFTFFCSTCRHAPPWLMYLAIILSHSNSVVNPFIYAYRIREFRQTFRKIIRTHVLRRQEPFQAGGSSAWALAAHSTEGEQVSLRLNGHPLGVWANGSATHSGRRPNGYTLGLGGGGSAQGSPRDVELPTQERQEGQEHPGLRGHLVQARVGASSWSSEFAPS
Brains from 200-500 g mixed sex Sprague-Dawley rats were purchased from Pel-Freez (Rogers, Arkansas). […] Brains were thawed and then kept on ice while the striata were dissected out. […] When needed, tissue was thawed at room temperature, disrupted in a Polytron, and kept on ice until used.
Test compounds were dissolved at 10 mM in dimethylsulfoxide on the same day as the experiment, and diluted in dimethylsulfoxide to 100x the final incubation concentration. […] [^3H]NECA was diluted to 40 nM in Tris. […] After all additions, the rack of tubes was vortexed, and the tubes were then incubated for 60 min at 25°C in a shaking water bath. The rack of tubes was vortexed an additional time halfway through the incubation.
Incubations were terminated by filtration through 2.4 cm GF/B filters under reduced pressure. Each tube was filtered as follows: the contents of the tube were poured onto the filter, 4 ml of ice-cold Tris were added to the tube and the contents poured onto the filter, and the filter was washed twice with 4 ml of ice-cold Tris. The filtration was complete in about twelve seconds. Filters were put in scintillation vials, 8 ml of Formula 947 scintillation fluid added, and the vials left overnight, shaken, and counted in a liquid scintillation counter at 40% efficiency.

Molecules are shown by their SMILES. Where two headings read alike, the source gives them in different places.

Consider `OCC1OC(n2cnc3c(NC4CC5CCC4C5)ncnc32)C(O)C1O` (stereo not drawn) [Example 2, N6-exo-Bicyclo[2.2.1]heptyladenosine], for which, in experiment [1] (read-out: % Inhibition Exudate), the inhibition at 0.3 mg/kg worked out at 24.3% and the inhibition at 1 mg/kg was 22.9%. Moreover, in experiment [1] (read-out: % Inhibition WBC), the inhibition at 0.3 mg/kg was 25.7% and the inhibition at 1 mg/kg was determined as 52.9%. The IC50 in experiment [2] turned out to be 1.4 nM.

In the case of `OCC1OC(n2cnc3c(NC4CC5CCC4C5)ncnc32)C(O)C1O` (stereo not drawn) [Example 1, N6-endo-Bicyclo[2.2.1]heptyl adenosine], the ED50 in experiment [3] was 0.03 mg/kg. Besides, the ED50 in experiment [1] (exudate cells (WBC), read-out: ID50 (mg/kg) WBC) amounted to 0.12 mg/kg. Also, in experiment [1] (exudate volume, read-out: ID50 (mg/kg) Exudate), the ED50 came to 0.15 mg/kg. Also, in experiment [1] (read-out: % Inhibition Exudate), the inhibition at 0.1 mg/kg worked out at 49.3%, the inhibition at 0.2 mg/kg stood at 60%, the inhibition at 0.4 mg/kg worked out at 81.3% and the inhibition at 0.8 mg/kg worked out at 42.7%. For the same compound, in experiment [1] (read-out: % Inhibition WBC), the inhibition at 0.1 mg/kg is 74.1%, the inhibition at 0.2 mg/kg came to 70%, the inhibition at 0.4 mg/kg worked out at 90% and the inhibition at 0.8 mg/kg was 68.4%. Further, the IC50 in experiment [2] came out at 0.85 nM.

For `OC1C(CCl)OC(n2cnc3c(NC4CC5CCC4C5)ncnc32)C1O` (stereo not drawn) [Example 5, N6-2-endo-norbornyl-5'-chloro-5'-deoxy-adenosine], the inhibition at 0.1 mg/kg in experiment [1] (read-out: % Inhibition Exudate) turned out to be 11.7%; in experiment [1] (read-out: % Inhibition WBC) it was 18.4%. The inhibition at 0.3 mg/kg came out at 16.8% in experiment [1] (read-out: % Inhibition Exudate) and 40% in experiment [1] (read-out: % Inhibition WBC). For the same compound, the IC50 in experiment [2] is 0.69 nM; in experiment [4] it was 3090 nM.
